Laboratory results: patent US20230129034A1, “TREATMENT OF DISEASE WITH ESTERS OF SELECTIVE RXR AGONISTS” (Io Therapeutics, Inc., priority 2017, published 2023)

Assays:
breast cancer cells = experiment: Proliferation of breast cancer cells in vitro; assay type: cell-based
[1] = tested on: oligodendrocyte differentiation and remyelination; experiment: In vitro measures of oligodendrocyte differentiation and remyelination; assay type: cell-based
[2] = Thyroid function in human subjects treated with IRX4204; assay type: in vivo
[3] = Cmax after oral doses of IRX4204; details: in vivo, 24 mg/m2; oral doses of 24 mg/m^2/day
RARβ [4] = biological target: T1, RARβ (Homo sapiens, UniProt P10826); experiment: RAR transactivation assay (ER-RAR fusion, ERE-tk-Luc reporter, CV-1 cells); assay type: cell-based; details: 20 hours, luciferase activity
T1 construct: expressed in transfected cells; host or cells: CV-1
From the text: (§1) Data are mean values ± SE from five independent experiments.
T1 sequence (P10826 183-417 limits assumed, species assumed): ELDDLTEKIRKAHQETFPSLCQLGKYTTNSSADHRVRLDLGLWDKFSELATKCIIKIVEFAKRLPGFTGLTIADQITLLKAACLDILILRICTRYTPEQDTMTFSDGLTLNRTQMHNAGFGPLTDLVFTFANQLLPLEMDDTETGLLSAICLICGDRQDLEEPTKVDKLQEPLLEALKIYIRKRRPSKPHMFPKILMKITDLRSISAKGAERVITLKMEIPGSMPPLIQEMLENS

RARγ [5] = biological target: T2, RARγ (Homo sapiens, UniProt P13631); experiment: as above; assay type: cell-based; details: 20 hours, luciferase activity
T2 construct: expressed in transfected cells; host or cells: CV-1
From the text: as §1
T2 sequence (P13631 185-419 limits assumed, species assumed): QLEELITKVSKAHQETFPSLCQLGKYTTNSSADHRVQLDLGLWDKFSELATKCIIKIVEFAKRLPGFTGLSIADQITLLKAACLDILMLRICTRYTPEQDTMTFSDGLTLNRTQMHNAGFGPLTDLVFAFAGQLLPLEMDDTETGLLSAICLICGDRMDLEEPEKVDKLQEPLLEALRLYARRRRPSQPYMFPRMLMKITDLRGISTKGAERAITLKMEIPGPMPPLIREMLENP

RARα = biological target: T3, RARα (Homo sapiens, UniProt P10276); experiment: Competitive displacement of [3H]-ATRA from purified receptor; details: 5 nM [3H]-ATRA; read-out: RAR Binding Affinity Ki (nM) RARα
T3 construct: made in house; host or cells: SF21 insect cells (baculovirus)
From the text: (§2) Standard errors (±) among independent experiments are indicated.

RARγ [6] = biological target: RARγ (Homo sapiens, UniProt P13631); experiment: as above; details: 5 nM [3H]-ATRA; read-out: RAR Binding Affinity Ki (nM) RARγ
From the text: as §2
Target sequence in this assay (P13631 whole entry, species assumed): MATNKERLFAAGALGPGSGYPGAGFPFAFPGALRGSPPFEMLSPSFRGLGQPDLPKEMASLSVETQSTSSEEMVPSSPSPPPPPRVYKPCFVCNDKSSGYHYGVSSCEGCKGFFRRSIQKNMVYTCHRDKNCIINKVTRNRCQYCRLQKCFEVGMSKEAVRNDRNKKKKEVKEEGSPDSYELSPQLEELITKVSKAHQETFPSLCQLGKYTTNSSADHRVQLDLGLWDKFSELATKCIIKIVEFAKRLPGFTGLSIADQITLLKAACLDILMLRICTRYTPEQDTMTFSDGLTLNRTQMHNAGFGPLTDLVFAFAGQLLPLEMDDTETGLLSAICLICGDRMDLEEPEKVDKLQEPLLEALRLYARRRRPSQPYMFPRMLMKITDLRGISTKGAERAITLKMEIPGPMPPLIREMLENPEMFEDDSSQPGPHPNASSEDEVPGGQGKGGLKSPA

RARβ [7] = biological target: T4, RARβ (Homo sapiens, UniProt P10826); experiment: as above; details: 5 nM [3H]-ATRA; read-out: RAR Binding Affinity Ki (nM) RARβ
T4 construct: made in house; host or cells: SF21 insect cells (baculovirus)
From the text: as §2
T4 sequence (P10826 whole entry, species assumed, the tested form may be a part): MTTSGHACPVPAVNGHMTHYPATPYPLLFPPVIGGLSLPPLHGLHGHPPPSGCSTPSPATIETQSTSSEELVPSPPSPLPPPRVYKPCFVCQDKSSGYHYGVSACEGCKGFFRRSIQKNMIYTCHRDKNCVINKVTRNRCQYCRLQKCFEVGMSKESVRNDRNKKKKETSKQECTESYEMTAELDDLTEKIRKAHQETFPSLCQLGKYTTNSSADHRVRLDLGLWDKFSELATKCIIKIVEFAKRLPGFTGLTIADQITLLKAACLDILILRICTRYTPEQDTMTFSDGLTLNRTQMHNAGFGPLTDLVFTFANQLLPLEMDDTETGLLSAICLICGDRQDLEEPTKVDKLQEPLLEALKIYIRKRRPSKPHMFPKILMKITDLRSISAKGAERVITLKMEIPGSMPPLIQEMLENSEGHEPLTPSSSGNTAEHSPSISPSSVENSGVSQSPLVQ

PPARy/RXR = experiment: Permissive heterodimer transactivation assay, CV-1 cells, 3x(rAOX/DR1)-tk-Luc; assay type: cell-based; details: 20 hr, luciferase vs rosiglitazone
From the text: For PPARy: CV-1 cells were transfected with 3x(rAOX/DR1)-tk-Luc reporter gene and an expression vector for PPARy. For FXR:CV-1 cells were transfected with 3x(IBABP/IRI)-tk-Luc reporter gene and vectors for FXR and RXRα. For LXR:CV-1 cells were transfected with 3x(PLTP/LXRE)-tk-Luc reporter gene with vectors for LXRα or LXRβ. For Nurr1: COS7 cells were transfected with 3xNBRE-tk-luc reporter gene and full length Nurr-1 with or without full-length RXRα plasmid. […] Luciferase data were normalized to co-transfected β-gal activity. Luciferase activity was expressed as percent of maximal activity obtained using specific agonists. Rosiglitazone (PPARy), GW4064 (FXR), T0901317 (LXR).

RXRα = biological target: T5, RXRα (Homo sapiens, UniProt P19793); experiment: Competitive displacement of [3H]-9CRA from purified receptor; details: 10 nM [3H]-9CRA; read-out: RXR Binding Affinity Ki (nM) RXRα
T5 construct: an expression construct including a full length RXRα, RXRβ, or RXRy; expressed in transfected cells; host or cells: CV-1
T5 sequence (P19793 1-462): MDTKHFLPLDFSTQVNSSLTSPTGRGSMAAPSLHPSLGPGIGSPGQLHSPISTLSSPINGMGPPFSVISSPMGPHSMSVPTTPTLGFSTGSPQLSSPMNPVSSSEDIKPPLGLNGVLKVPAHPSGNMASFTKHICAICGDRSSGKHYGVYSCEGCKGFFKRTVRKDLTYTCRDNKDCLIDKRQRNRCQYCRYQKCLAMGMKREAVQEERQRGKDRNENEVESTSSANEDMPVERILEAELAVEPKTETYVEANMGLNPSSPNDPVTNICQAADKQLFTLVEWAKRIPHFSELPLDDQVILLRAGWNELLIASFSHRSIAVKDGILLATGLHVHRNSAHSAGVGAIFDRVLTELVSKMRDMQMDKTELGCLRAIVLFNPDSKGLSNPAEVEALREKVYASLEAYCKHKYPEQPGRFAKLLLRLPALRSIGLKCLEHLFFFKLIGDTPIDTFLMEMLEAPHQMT
From the text: as §2

T3 sequence (P10276 whole entry, species assumed): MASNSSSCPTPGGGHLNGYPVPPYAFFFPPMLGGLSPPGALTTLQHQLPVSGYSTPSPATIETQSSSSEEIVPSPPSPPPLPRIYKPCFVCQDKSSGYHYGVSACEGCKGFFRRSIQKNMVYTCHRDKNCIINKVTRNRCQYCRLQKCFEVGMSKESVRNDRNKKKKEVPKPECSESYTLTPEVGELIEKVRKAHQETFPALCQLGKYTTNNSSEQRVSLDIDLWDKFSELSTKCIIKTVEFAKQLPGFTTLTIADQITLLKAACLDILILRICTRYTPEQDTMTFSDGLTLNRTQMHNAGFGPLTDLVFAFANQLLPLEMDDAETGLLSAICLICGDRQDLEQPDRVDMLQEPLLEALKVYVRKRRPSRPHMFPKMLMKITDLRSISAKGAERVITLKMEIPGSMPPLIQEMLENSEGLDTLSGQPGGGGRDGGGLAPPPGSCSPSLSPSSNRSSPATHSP

In the case of `CC(/C=C/[C@@H]1C[C@]1(C)c1ccc2c(c1)C(C)(C)CCC2(C)C)=C\C(=O)O` [IRX4204, 3,7-dimethyl-6(S),7(S)-methano,7-[1,1,4,4-tetramethyl-1,2,3,4-tetrahydronaphth-7-yl]2(E),4(E) heptadienoic acid], the “inhibition of proliferation of breast cancer cells” value (breast cancer cells; 10 nM) is reported as “observably inhibit the proliferation”, the “inhibition of proliferation of breast cancer cells” value (breast cancer cells; 100 nM) is reported as “substantial improvement in effectiveness” and the “concentration with marginal activity detected” value [1] is reported as 1 pM. For the same compound, the circulating thyroxine levels [2] was “reduction in circulating thyroxine levels”, the “plasma levels of TSH” value [2] was “reduction in plasma levels of TSH” and the Cmax [3] was 0.219 µM.
With `CCOC(=O)/C=C(C)/C=C/[C@@H]1C[C@]1(C)c1ccc2c(c1)C(C)(C)CCC2(C)C` [IRX4204EE, 3,7-dimethyl-6(S),7(S)-methano,7-[1,1,4,4-tetramethyl-1,2,3,4-tetrahydronaphth-7-yl]2(E),4(E) heptadienoic ethyl ester] the EC50 (RARβ [4]) was over 1000 nM, the EC50 (RARγ [5]) was over 1000 nM and the Ki (RARα) was over 1000 nM. For the same compound, the Ki (RARγ [6]) was over 1000 nM, the Ki (RARβ [7]) was over 1000 nM and the “activation of PPARy/RXR heterodimer” value (PPARy/RXR) was “very little activity”. The Ki (RXRα) was over 1000 nM.
